Measurements reported in patent US9861680B2, “Immunomodulators” (BRISTOL-MYERS SQUIBB COMPANY, priority 2014, dated 2018).
Numbered stars: 1 amine (or outer) side, 2 acyl side, 3 side chain; on linkers, the order of the positions; unused ones are H or OH. Bridge positions count the residues as written; N and C are the ends. Square brackets hold non-standard residues; d marks the D form. Peptide text beside a SMILES is read from it. X7 = COCCN([C@@H](C)C(=O)[*:2])[*:1]; X2 = C[C@@H](C(=O)[*:2])N(CCN)[*:1]; NBnAla = C[C@H](NCc1ccccc1)C(=O)O; Hyp = O=C(O)[C@@H]1C[C@@H](O)CN1; Gly(N-CH2CH2OH) = O=C(O)CNCCO; NMeNle = CCCC[C@H](NC)C(=O)O; NMeA = CN[C@@H](C)C(=O)O; Dab = NCC[C@H](N)C(=O)O

Target: T1, PD-1-Ig binding to PD-L1-TVMV-His (PD-L1-His) (Homo sapiens, UniProt Q9NZQ7)
T1 construct: hPDL1(19-239)-TVMV-His; made in house; host or cells: HEK293T
Assay: PD-1/PD-L1 Homogenous Time-Resolved Fluorescence (HTRF) binding assay
Details: range class; PD-L1-His 10 nM, PD-1-Ig 20 nM
Source text: Methods for Testing the Ability of Macrocyclic Peptides to Compete for the Binding of Pd-1 to Pd-L1 Using Homogenous Time-Resolved Fluorescence (HTRF) Binding Assays
The ability of the macrocyclic peptides of the present disclosure to bind to PD-L1 was investigated using a PD-1/PD-L1 Homogenous Time-Resolved Fluorescence (HTRF) binding assay.
Homogenous Time-Resolved Fluorescence (HTRF) Assays of Binding of Soluble PD-1 to Soluble PD-L1. Soluble PD-1 and soluble PD-L1 refers to proteins with carboxyl-end truncations that remove the transmembrane-spanning regions and are fused to heterologous sequences, specifically the Fc portion of the human immunoglobuling G sequence (Ig) or the hexahistidine epitope tag (His). All binding studies were performed in an HTRF assay buffer consisting of dPBS supplemented with 0.1% (w/v) bovine serum albumin and 0.05% (v/v) Tween-20. For the PD-1-Ig/PD-L1-His binding assay, inhibitors were pre-incubated with PD-L1-His (10 nM final) for 15 m in 4 μl of assay buffer, followed by addition of PD-1-Ig (20 nM final) in 1 μl of assay buffer and further incubation for 15 m. PD-L1 fusion proteins from either human, cynomologous macaques, mouse, or other species were used. HTRF detection was achieved using europium crypate-labeled anti-Ig monoclonal antibody (1 nM final) and allophycocyanin (APC) labeled anti-His monoclonal antibody (20 nM final). Antibodies were diluted in HTRF detection buffer and 5 μl was dispensed on top of binding reaction. The reaction was allowed to equilibrate for 30 minutes and signal (665 nm/620 nm ratio) was obtained using an EnVision fluorometer. Additional binding assays were established between PD-1-Ig/PD-L2-His (20 and 5 nM, respectively), CD80-His/PD-L1-Ig (100 and 10 nM, respectively) and CD80-His/CTLA4-Ig (10 and 5 nM, respectively). Binding/competition studies between biotinylated Compound No. 71 and human PD-L1-His were performed as follows. Macrocyclic peptide inhibitors were pre-incubated with PD-L1-His (10 nM final) for 60 minutes in 4 μl of assay buffer followed by addition of biotinylated Compound No. 71 (0.5 nM final) in 1 μl of assay buffer. Binding was allowed to equilibrate for 30 minutes followed by addition of europium crypated labeled Streptavidin (2.5 pM final) and APC-labeled anti-His (20 nM final) in 5 μl of HTRF buffer. The reaction was allowed to equilibrate for 30 m and signal (665 nm/620 nm ratio) was obtained using an EnVision fluorometer.
Recombinant Proteins. Carboxyl-truncated human PD-1 (amino acids 25-167) with a C-terminal human Ig epitope tag [hPD-1 (25-167)-3S-IG] and human PD-L1 (amino acids 18-239) with a C-terminal His epitope tag [hPD-L1(19-239)-tobacco vein mottling virus protease cleavage site (TVMV)-His] were expressed in HEK293T cells and purified sequentially by recombinant Protein A affinity chromatography and size exclusion chromatography. Human PD-L2-His (Sino Biologicals), CD80-His (Sino Biologicals), CTLA4-Ig (RnD Systems) were all obtained through commercial sources.
Ranges are as follows: A=0.10-10 μM; B=0.01-0.099 μM; C=0.005-0.0099 μM.

T1 sequence (Q9NZQ7 with tags, fused parts or gaps): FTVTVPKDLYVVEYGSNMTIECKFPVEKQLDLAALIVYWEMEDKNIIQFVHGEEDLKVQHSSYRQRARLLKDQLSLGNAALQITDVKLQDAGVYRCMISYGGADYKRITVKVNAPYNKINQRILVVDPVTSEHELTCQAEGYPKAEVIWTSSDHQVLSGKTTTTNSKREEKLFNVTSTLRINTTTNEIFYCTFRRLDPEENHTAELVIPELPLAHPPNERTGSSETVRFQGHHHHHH

Structure (SMILES) | IC50 [nM]
CCCC[C@H]1C(=O)N(C)[C@@H](CCCC)C(=O)N[C@@H](CC(C)C)C(=O)N[C@H](C(=O)NCC(N)=O)CSCC(=O)N[C@@H](Cc2ccc(O)cc2)C(=O)N(Cc2ccccc2)[C@@H](C)C(=O)N[C@@H](CC(N)=O)C(=O)N2CCC[C@H]2C(=O)N[C@@H](Cc2cnc[nH]2)C(=O)N[C@@H](CCC(=O)O)C(=O)N2C[C@H](O)C[C@H]2C(=O)N[C@@H](Cc2c[nH]c3ccccc23)C(=O)N[C@@H](CCN)C(=O)N[C@@H](Cc2c[nH]c3ccccc23)C(=O)N1C [Example 3019] ({CH2CO}-Y[NBnAla]NPHE[Hyp]W[Dab]W[NMeNle][NMeNle]LCG-NH2; thioether N-14) | 10 to 99
CCCC[C@H]1C(=O)N(C)[C@@H](CCCC)C(=O)N[C@@H](CC(C)C)C(=O)N[C@H](C(=O)NCC(N)=O)CSCC(=O)N[C@@H](Cc2ccc(O)cc2)C(=O)N(CCO)CC(=O)N[C@@H](CC(N)=O)C(=O)N2CCC[C@H]2C(=O)N[C@@H](Cc2cnc[nH]2)C(=O)N[C@@H](CCC(=O)O)C(=O)N2C[C@H](O)C[C@H]2C(=O)N[C@@H](Cc2c[nH]c3ccccc23)C(=O)N[C@@H](CCN)C(=O)N[C@@H](Cc2c[nH]c3ccccc23)C(=O)N1C [Example 3045] ({CH2CO}-Y[Gly(N-CH2CH2OH)]NPHE[Hyp]W[Dab]W[NMeNle][NMeNle]LCG-NH2; thioether N-14) | 10 to 99
CCCC[C@H]1C(=O)N[C@@H](CC(C)C)C(=O)N[C@H](C(=O)NCC(N)=O)CSCC(=O)N[C@@H](Cc2ccc(O)cc2)C(=O)N(C)[C@@H](C)C(=O)N[C@@H](CC(N)=O)C(=O)N2CCC[C@H]2C(=O)N[C@@H](Cc2cnc[nH]2)C(=O)N[C@@H](CCC(=O)O)C(=O)N2C[C@H](O)C[C@H]2C(=O)N[C@@H](Cc2c[nH]c3ccccc23)C(=O)N[C@@H](CCN)C(=O)N[C@@H](Cc2c[nH]c3ccccc23)C(=O)N(CCOC)[C@@H](C)C(=O)N1C [Example 3025] ({CH2CO}-Y[NMeA]NPHE[Hyp]W[Dab]W[X7][NMeNle]LCG-NH2; thioether N-14) | 10 to 99
CCCC[C@H]1C(=O)N[C@@H](CC(C)C)C(=O)N[C@H](C(=O)NCC(N)=O)CSCC(=O)N[C@@H](Cc2ccc(O)cc2)C(=O)N(C)[C@@H](C)C(=O)N[C@@H](CC(N)=O)C(=O)N2CCC[C@H]2C(=O)N[C@@H](Cc2cnc[nH]2)C(=O)N[C@@H](CCC(=O)O)C(=O)N2C[C@H](O)C[C@H]2C(=O)N[C@@H](Cc2c[nH]c3ccccc23)C(=O)N[C@@H](CCN)C(=O)N[C@@H](Cc2c[nH]c3ccccc23)C(=O)N(CCN)[C@@H](C)C(=O)N1C [Example 3022] ({CH2CO}-Y[NMeA]NPHE[Hyp]W[Dab]W[X2][NMeNle]LCG-NH2; thioether N-14) | 10 to 99
CCCC[C@H]1C(=O)N[C@@H](CC(C)C)C(=O)N[C@H](C(=O)NCC(N)=O)CSCC(=O)N[C@@H](Cc2ccc(O)cc2)C(=O)N(C)[C@@H](C)C(=O)N[C@@H](CC(N)=O)C(=O)N2CCC[C@H]2C(=O)N[C@@H](Cc2cnc[nH]2)C(=O)N[C@@H](CCC(=O)O)C(=O)N2C[C@H](O)C[C@H]2C(=O)N[C@@H](Cc2c[nH]c3ccccc23)C(=O)N[C@@H](CCN)C(=O)N[C@@H](Cc2c[nH]c3ccccc23)C(=O)N(CC(=O)O)[C@@H](C)C(=O)N1C [Example 3028] | 100 to 10000
CCCC[C@H]1C(=O)N(C)[C@@H](CCCC)C(=O)N[C@@H](CC(C)C)C(=O)N[C@H](C(=O)NCC(N)=O)CSCC(=O)N[C@@H](Cc2ccc(O)cc2)C(=O)N(CCN)[C@@H](C)C(=O)N[C@@H](CC(N)=O)C(=O)N2CCC[C@H]2C(=O)N[C@@H](Cc2cnc[nH]2)C(=O)N[C@@H](CCC(=O)O)C(=O)N2C[C@H](O)C[C@H]2C(=O)N[C@@H](Cc2c[nH]c3ccccc23)C(=O)N[C@@H](CCN)C(=O)N[C@@H](Cc2c[nH]c3ccccc23)C(=O)N1C [Example 3032] ({CH2CO}-Y[X2]NPHE[Hyp]W[Dab]W[NMeNle][NMeNle]LCG-NH2; thioether N-14) | 10 to 99
